According to patent US20220401415A1, “METHODS FOR TREATING NEUROLOGICAL DISORDERS WITH ALPHA1A-AR PARTIAL AGONISTS” (Curasen Therapeutics, Inc., priority 2019, published 2022):
Where two headings read alike, the source gives them in different places.

Key:
α1A-AR receptor [1] = molecular target: T1, α1A-AR receptor (Homo sapiens, UniProt P35348); settings: as compared to noradrenaline; InsPs accumulation assay; Blue et al., Table 1; cited from earlier work
T1 sequence (P35348 1-466): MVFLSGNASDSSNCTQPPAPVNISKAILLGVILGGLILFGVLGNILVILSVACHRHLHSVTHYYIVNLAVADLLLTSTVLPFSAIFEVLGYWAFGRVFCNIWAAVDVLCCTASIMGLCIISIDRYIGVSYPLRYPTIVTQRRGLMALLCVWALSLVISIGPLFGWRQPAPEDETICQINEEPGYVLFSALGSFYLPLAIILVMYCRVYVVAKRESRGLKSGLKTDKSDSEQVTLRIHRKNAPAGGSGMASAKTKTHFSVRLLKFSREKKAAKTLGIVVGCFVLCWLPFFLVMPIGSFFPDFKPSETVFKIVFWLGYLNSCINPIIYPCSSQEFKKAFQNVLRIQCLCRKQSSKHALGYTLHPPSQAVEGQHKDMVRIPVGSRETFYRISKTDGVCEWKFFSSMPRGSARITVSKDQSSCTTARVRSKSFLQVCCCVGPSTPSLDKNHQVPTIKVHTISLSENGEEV

α1A-AR receptor [2] = molecular target: T1, α1A-AR receptor; settings: as compared to noradrenaline; FLIPR assay; Blue et al., Table 1; cited from earlier work
[3] = test system: neurogenic orthostatic hypotension (nOH) patients; test: Treatment of patients having nOH (Example 1); type: in vivo, human; settings: 5 mg oral tablets twice daily, follow-up after one week of treatment
Experimental: Patients between the age of 40 and 80 years old that have been diagnosed with symptomatic orthostatic hypotension due to pure autonomic failure, multiple system atrophy or Parkinson's disease (i.e., PD plus symptoms) present for treatment. At the time of presentation, autonomic function testing is conducted to confirm the diagnosis of autonomic dysfunction including sinus arrhythmia and the Valsalva maneuver.
The patients are given 5 mg dabuzalgron oral tablets and are instructed to take one tablet shortly after waking up in the morning and a second tablet 4-6 hours later each day.
Some patients return for a follow-up visit after one week of treatment. […] In the follow-up visit supine systolic blood pressure (SSBP) may be determined.

With Cc1c(OCC2=NCCN2)ccc(Cl)c1NS(C)(=O)=O.Cl [RO 115-1240 (dabuzalgron) HCl salt, N-[6-chloro-3-(4,5-dihydro-1H-imidazol-2-ylmethoxy)-2-methylphenyl]methanesulfonamide hydrochloride] as the compound, how does the intrinsic activity (α1A-AR receptor [1]) read?
The intrinsic activity was 0.27.

What about the intrinsic activity (α1A-AR receptor [2]) of the same compound?
Its intrinsic activity is 0.51.

With Cc1c(OCC2=NCCN2)ccc(Cl)c1NS(C)(=O)=O [RO 115-1240 (dabuzalgron) free base, N-[6-chloro-3-(4,5-dihydro-1H-imidazol-2-ylmethoxy)-2-methylphenyl]methanesulfonamide] as the compound, how does the “symptoms of nOH as compared to the first visit” value [3] read?
The value was “symptoms of nOH improve”.

What about the intrinsic activity (α1A-AR receptor [1]) of the same compound?
The intrinsic activity was 0.31.
